Results: patent EP4731189B1, “SOLID ORAL FORMULATION OF PUDAFENSINE” (Initiator Pharma A/S, priority 2023, dated 2024)
Values after ≈ are worked out from the molar mass of the structure shown.

Experiments:
[1] = Solubility of IP2015 in aqueous and non-aqueous vehicles (visual, HPLC content); type: physicochemical
Method: Solubility of IP2015 was determined in both aqueous and non-aqueous vehicles. In non-aqueous liquids, the solubility was visually confirmed in progressive dilutions. The solubility of IP2015 in pH specific aqueous solutions was evaluated, the solubility was visually confirmed, and the content was evaluated by HPLC. Table 2. Solubility of IP2015 in different media.

[2] = system: male subjects with erectile dysfunction (ED); experiment: Phase IIb study in erectile dysfunction, treatment-emergent adverse events and semen analysis; type: in vivo, humans
Description: (§1) The study investigated the effects of repeat single oral doses of IP2015 on male subjects with erectile dysfunction (ED) on ability to develop and maintain an erection, as well as safety and tolerability of single oral doses of IP2015, effects on penile rigidity and tumescence during visual stimulation, effects on sperm count and motility, and any possible relationship between plasma levels of IP2015, its efficacy and safety.
(§2) 130 subjects were divided into 3 groups upon which the study was conducted in parallel. Each subject was dosed on four occasions with either 5 mg IP2015, 10 mg IP2015 or matched placebo. In each group, subjects were randomized evenly to each of the three study treatments and received the same treatment at each visit.
(§3) On Day -7, and at Week 1 (Day 1), Week 2, Week 3, Week 4 and Follow-up visits, all groups were asked to complete the IIEF-15 questionnaire. Group 2 was asked to complete a Visual Stimulation Assessment using a RigiScan Plus Monitor on Day -7, Week 1 (Day 1) and Week 4. Group 2 was also required to provide blood samples for pharmacokinetic assessment on Week 1 (Day 1) and Week 4. Group 3 was required to provide semen samples on Day -7 and Week 4.
(§4) There were three potential study treatments of 5 mg IP2015, 10 mg IP2015 or matched placebo. In each group, subjects were randomized evenly to each of the three study treatments and received the same treatment on each visit. IP2015 or matched placebo was administered once in the morning of Week 1 (Day 1), Week 2, Week 3, and Week 4 as an oral solution in the fasted state. The dose was taken with 240 mL of water at room temperature. Subjects had fasted 2 hours prior to dosing until 4 hours post-dose. Water was allowed ad libitum except for 1 hour before and 1 hour after dosing.
(§5) Efficacy was assessed through the International Index of Erectile Function (IIEF)-15 questionnaire. The change from baseline in responses to questions of the IIEF-15 questionnaire, including questions regarding erectile function, orgasmic function, sexual desire, intercourse satisfaction and overall satisfaction domain scores, was determined at different time points of the study. RigiScan assessments during the stimulus assessment, and sperm count and motility by semen sample collection was used for efficacy evaluation. Safety was assessed through AE reporting, 12-lead ECG, vital signs, physical examinations, and clinical laboratory evaluations. Pharmacokinetics was assessed by blood sampling.

[3] = system: male subjects with erectile dysfunction (ED); experiment: Phase IIb study in erectile dysfunction, IIEF-15 questionnaire efficacy; type: in vivo, humans
Description: as §1, §2
The study lasted approximately 8 weeks and consisted of the following: • A screening visit (up to 21 days prior to the baseline visit) • A baseline visit (Day -7) • Outpatient visits on Week 1 (Day 1), Week 2, Week 3 and Week 4 • A follow-up visit a minimum of 7 to 10 days after their final dose.
as §3
The patients were otherwise healthy male subjects with ED as determined from an IIEF-5 score of ≤16, with a body mass index of 18 to 35 kg/m^2 (inclusive), of any ethnic origin. Subjects were aged between 18 to 59 years, inclusive.
as §4, §5
The results are means±SE. The statistical differences were performed with Mixed Model Repeated Measures (MMRM).

[4] = pH 5.8 Potassium Phosphate buffer
[5] = pH 6.8 Potassium Phosphate buffer
[6] = pH 7.5 Potassium Phosphate buffer
[7] = 5 mg IP2015 oral solution, overall score, tendency to difference

- solubility ([1]; 0.1n hcl, pH 1.2 HCl (0.1N)): 17 µg/mL (≈ 0.0564 mM)
- Inference (Ph.Eur) ([1]; N,N-dimethyl acetamide): Very slightly soluble
- Inference (Ph.Eur) ([1]; N-methyl-2-pyrrolidone): Very slightly soluble
- solubility ([1]; aqueous solutions across physiological pH): < 1000 µg/mL
- Inference (Ph.Eur) ([1]; dimethyl sulfoxide): Slightly soluble
- solubility ([1]; dimethyl sulfoxide): 5000 to 10000 µg/mL (≈ 16.6 to 33.2 mM)
- Inference (Ph.Eur) ([1]; ethanol): Very slightly soluble
- solubility ([1]; ethanol): < 1000 µg/mL
- Inference (Ph.Eur) ([1]; glycerine): Very slightly soluble
- solubility ([1]; glycerine): < 1000 µg/mL
- solubility ([1]; n,n-dimethyl acetamide): < 1000 µg/mL
- solubility ([1]; n-methyl-2-pyrrolidone): < 1000 µg/mL
- Inference (Ph.Eur) ([1]; pH 1.2 HCl (0.1N)): Very slightly soluble
- Inference (Ph.Eur) ([1]; pH 3.0 Acetate buffer): Slightly soluble
- solubility ([1]; pH 3.0 Acetate buffer): 1170 µg/mL (≈ 3.89 mM)
- Inference (Ph.Eur) ([1]; pH 3.0 Citrate buffer): Very slightly soluble
- solubility ([1]; pH 3.0 Citrate buffer): 839 µg/mL (≈ 2.78 mM)
- Inference (Ph.Eur) ([1]; pH 4.0 Citrate buffer): Very slightly soluble
- solubility ([1]; pH 4.0 Citrate buffer): 849 µg/mL (≈ 2.82 mM)
- Inference (Ph.Eur) ([1]; pH 4.5 Acetate buffer): Very slightly soluble
- solubility ([1]; pH 4.5 Acetate buffer): 981 µg/mL (≈ 3.26 mM)
- Inference (Ph.Eur) [1, 4]: Very slightly soluble
- solubility [1, 4]: 104 µg/mL (≈ 0.345 mM)
- Inference (Ph.Eur) [1, 5]: Very slightly soluble
- solubility [1, 5]: 146 µg/mL (≈ 0.484 mM)
- Inference (Ph.Eur) [1, 6]: Very slightly soluble
- solubility [1, 6]: 84 µg/mL (≈ 0.279 mM)
- Inference (Ph.Eur) ([1]; polyethylene glycol 400): Very slightly soluble
- solubility ([1]; polyethylene glycol 400): < 1000 µg/mL
- Inference (Ph.Eur) ([1]; propylene glycol): Slightly soluble
- solubility ([1]; propylene glycol): 1000 to 5000 µg/mL (≈ 3.32 to 16.6 mM)
- Inference (Ph.Eur) ([1]; purified water): Very slightly soluble
- solubility ([1]; purified water): 738 µg/mL (≈ 2.45 mM)
Compound: COc1cc2ccc(O[C@@H]3C[C@H]4CC[C@@H](C3)N4)cc2oc1=O [IP2015, Exo-7-[(-8-azabicyclo[3.2.1]octan-3-yl)oxy]-3-methoxy-chromen-2-one]
- Any TEAE, figure after the comma ([2]; IP2015 5mg, N=42): 61
- Any TEAE, n (%) ([2]; IP2015 5mg, N=42): 32 (76.2 %)
- TEAE Dizziness, figure after the comma ([2]; IP2015 5mg, N=42): 3
- TEAE Dizziness, n (%) ([2]; IP2015 5mg, N=42): 3 (7.1 %)
- TEAE Headache, figure after the comma ([2]; IP2015 5mg, N=42): 15
- TEAE Headache, n (%) ([2]; IP2015 5mg, N=42): 11 (26.2 %)
- TEAE Mild, figure after the comma ([2]; IP2015 5mg, N=42): 56
- TEAE Mild, n (%) ([2]; IP2015 5mg, N=42): 29 (69.0 %)
- TEAE Moderate, figure after the comma ([2]; IP2015 5mg, N=42): 5
- TEAE Moderate, n (%) ([2]; IP2015 5mg, N=42): 3 (7.1%)
- TEAE Nausea, figure after the comma ([2]; IP2015 5mg, N=42): 1
- TEAE Nausea, n (%) ([2]; IP2015 5mg, N=42): 1 (2.4 %)
- TEAE Related*, figure after the comma ([2]; IP2015 5mg, N=42): 19
- TEAE Related*, n (%) ([2]; IP2015 5mg, N=42): 10 (23.8 %)
- TEAE Severe ([2]; IP2015 5mg, N=42): 0
- Any TEAE, figure after the comma ([2]; IP2015 10 mg, N=43): 141
- Any TEAE, n (%) ([2]; IP2015 10 mg, N=43): 34 (79.1 %)
- TEAE Dizziness, figure after the comma ([2]; IP2015 10 mg, N=43): 15
- TEAE Dizziness, n (%) ([2]; IP2015 10 mg, N=43): 12 (27.9 %)
- TEAE Headache, figure after the comma ([2]; IP2015 10 mg, N=43): 27
- TEAE Headache, n (%) ([2]; IP2015 10 mg, N=43): 16 (37.2 %)
- TEAE Mild, figure after the comma ([2]; IP2015 10 mg, N=43): 132
- TEAE Mild, n (%) ([2]; IP2015 10 mg, N=43): 33 (76.7%)
- TEAE Moderate, figure after the comma ([2]; IP2015 10 mg, N=43): 9
- TEAE Moderate, n (%) ([2]; IP2015 10 mg, N=43): 7 (16.3%)
- TEAE Nausea, figure after the comma ([2]; IP2015 10 mg, N=43): 15
- TEAE Nausea, n (%) ([2]; IP2015 10 mg, N=43): 8 (18.6 %)
- TEAE Related*, figure after the comma ([2]; IP2015 10 mg, N=43): 84
- TEAE Related*, n (%) ([2]; IP2015 10 mg, N=43): 23 (53.5 %)
- TEAE Severe ([2]; IP2015 10 mg, N=43): 0
- severe side effects ([2]; any of the doses (5 mg, 10 mg)): No severe side effects were observed
- Treatment-emergent adverse effects ([2]; low-dose (5 mg)): comparable to the placebo group
- overall response to questions of IIEF-15, p versus baseline ([3]; 5 mg IP2015 oral solution, at follow-up, significant): 0.0046
- overall response to questions of IIEF-15, p versus placebo ([3]; 5 mg IP2015 oral solution, at follow-up, tendency): 0.07
- Q4 in the IIEF-15, overall score, p compared to placebo ([3]; 5 mg IP2015 oral solution, overall score, no difference): 0.44
- overall response to questions of IIEF-15, overall score, p versus baseline ([3]; 5 mg IP2015 oral solution, overall score, significant): 0.0032
- overall response to questions of IIEF-15, overall score, p versus placebo ([3]; 5 mg IP2015 oral solution, overall score, tendency): 0.10
- Q3 in the IIEF-15, overall score, p versus baseline [3, 7]: 0.07
- Q3 in the IIEF-15, overall score, p versus placebo [3, 7]: 0.07
- Q4 in the IIEF-15, overall score, p versus baseline [3, 7]: 0.056
- Q3 in the IIEF-15, p versus baseline ([3]; 5 mg IP2015 oral solution, week 3, MMRM, significant): 0.046
- Q3 in the IIEF-15, p versus placebo ([3]; 5 mg IP2015 oral solution, week 3, change from baseline, MMRM, significant): 0.034
- overall IIEF-15 score, score change ([3]; low dose (5 mg) of IP2015, called clinically significant): 2
